Experimental data as given in PMC6009921, “Carbon- versus sulphur-based zinc binding groups for carbonic anhydrase inhibitors?” (Journal of Enzyme Inhibition and Medicinal Chemistry, 2018).
Read-outs that look alike come from different tables or passages of the source.

Columns and labels:
Assay in all cases: stopped-flow CO2 hydration
Assay type in all cases: biochemical
hCA IX = target: T1, hCA IX (Homo sapiens, UniProt Q16790)
T1 construct: gene CA9; recombinant, obtained in-house
Description: stopped-flow CO2 hydration on hCA IX

hCA VI = target: T2, hCA VI (Homo sapiens, UniProt P23280); settings: read-out: KI (μM)^a^,^b / hCA VI
T2 construct: gene CA6; recombinant, obtained in-house
T2 sequence (P23280 18-308): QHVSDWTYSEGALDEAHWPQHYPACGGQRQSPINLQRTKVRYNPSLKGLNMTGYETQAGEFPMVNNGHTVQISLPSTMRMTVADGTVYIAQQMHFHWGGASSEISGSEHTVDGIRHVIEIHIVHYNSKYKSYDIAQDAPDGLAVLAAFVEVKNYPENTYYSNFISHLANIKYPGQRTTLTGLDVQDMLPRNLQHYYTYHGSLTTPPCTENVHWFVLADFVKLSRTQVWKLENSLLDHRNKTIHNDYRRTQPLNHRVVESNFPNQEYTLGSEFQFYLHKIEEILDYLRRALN
Description: stopped-flow CO2 hydration on hCA VI

hCA III = target: T3, hCA III (Homo sapiens, UniProt P07451); settings: read-out: KI (μM)^a^,^b / hCA III
T3 construct: gene CA3; recombinant, obtained in-house
T3 sequence (P07451 2-260): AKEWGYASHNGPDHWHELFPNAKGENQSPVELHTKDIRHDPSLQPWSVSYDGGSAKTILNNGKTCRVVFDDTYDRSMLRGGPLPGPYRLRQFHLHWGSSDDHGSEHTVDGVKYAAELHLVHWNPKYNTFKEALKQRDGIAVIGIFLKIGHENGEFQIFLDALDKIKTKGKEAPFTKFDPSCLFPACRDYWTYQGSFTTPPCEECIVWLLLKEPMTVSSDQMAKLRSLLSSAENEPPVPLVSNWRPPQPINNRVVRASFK
Description: stopped-flow CO2 hydration on hCA III

hCA IV = target: T4, hCA IV (Homo sapiens, UniProt P22748); settings: read-out: KI (μM)^a^,^b / hCA IV
T4 construct: gene CA4; recombinant, obtained in-house
T4 sequence (P22748 19-284): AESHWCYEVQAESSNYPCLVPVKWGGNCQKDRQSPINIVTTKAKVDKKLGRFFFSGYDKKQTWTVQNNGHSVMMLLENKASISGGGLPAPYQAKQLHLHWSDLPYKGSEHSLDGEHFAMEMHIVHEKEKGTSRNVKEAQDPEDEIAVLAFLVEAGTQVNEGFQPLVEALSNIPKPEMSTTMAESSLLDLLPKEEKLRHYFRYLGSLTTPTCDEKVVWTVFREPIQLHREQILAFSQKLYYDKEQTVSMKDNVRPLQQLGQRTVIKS
Description: stopped-flow CO2 hydration on hCA IV

hCA XII = target: T5, hCA XII (Homo sapiens, UniProt O43570)
T5 construct: gene CA12; recombinant, obtained in-house
T5 sequence (O43570 30-289 limits assumed): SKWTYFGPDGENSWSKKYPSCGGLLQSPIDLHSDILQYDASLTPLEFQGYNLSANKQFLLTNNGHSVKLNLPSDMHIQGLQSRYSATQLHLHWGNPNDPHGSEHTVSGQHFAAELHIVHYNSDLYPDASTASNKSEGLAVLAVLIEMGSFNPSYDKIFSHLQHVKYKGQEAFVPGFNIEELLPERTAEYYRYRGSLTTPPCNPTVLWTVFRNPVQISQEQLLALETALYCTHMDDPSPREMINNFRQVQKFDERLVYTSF

hCA VB = target: T6, hCA VB (Homo sapiens, UniProt Q9Y2D0); settings: read-out: KI (μM)^a^,^b / hCA VB
T6 construct: gene CA5B; recombinant, obtained in-house
T6 sequence (Q9Y2D0 34-317): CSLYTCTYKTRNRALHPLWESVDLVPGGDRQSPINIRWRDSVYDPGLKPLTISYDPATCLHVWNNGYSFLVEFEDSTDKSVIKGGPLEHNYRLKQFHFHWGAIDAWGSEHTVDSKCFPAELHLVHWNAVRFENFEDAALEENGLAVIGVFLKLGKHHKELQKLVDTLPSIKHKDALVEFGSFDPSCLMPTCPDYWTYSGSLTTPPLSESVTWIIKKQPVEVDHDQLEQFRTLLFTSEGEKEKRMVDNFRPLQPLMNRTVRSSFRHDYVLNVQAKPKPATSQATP
Description: stopped-flow CO2 hydration on hCA VB

hCA VII = target: T7, hCA VII (Homo sapiens, UniProt P43166); settings: read-out: KI (μM)^a^,^b / hCA VII
T7 construct: gene CA7; recombinant, obtained in-house
T7 sequence (P43166 whole entry): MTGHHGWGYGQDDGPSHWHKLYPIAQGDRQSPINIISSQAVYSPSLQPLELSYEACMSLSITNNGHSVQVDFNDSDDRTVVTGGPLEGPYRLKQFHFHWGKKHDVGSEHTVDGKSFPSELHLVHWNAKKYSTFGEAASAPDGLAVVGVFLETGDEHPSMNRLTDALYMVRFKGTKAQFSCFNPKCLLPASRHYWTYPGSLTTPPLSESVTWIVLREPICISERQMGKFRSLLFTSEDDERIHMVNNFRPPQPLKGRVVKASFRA

hCA II = target: T8, hCA II (Homo sapiens, UniProt P00918)
T8 construct: gene CA2; recombinant, obtained in-house

hCA I [1] = target: T9, hCA I (Homo sapiens, UniProt P00915)
T9 construct: gene CA1; recombinant, obtained in-house
T9 sequence (P00915 2-261): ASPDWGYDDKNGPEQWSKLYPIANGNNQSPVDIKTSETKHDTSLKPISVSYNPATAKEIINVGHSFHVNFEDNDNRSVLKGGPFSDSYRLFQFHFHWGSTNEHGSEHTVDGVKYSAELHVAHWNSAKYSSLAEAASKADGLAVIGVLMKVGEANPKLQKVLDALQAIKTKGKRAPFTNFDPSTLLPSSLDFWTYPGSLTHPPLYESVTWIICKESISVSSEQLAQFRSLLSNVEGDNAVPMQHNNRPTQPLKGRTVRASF

hCA XIV = target: T10, hCA XIV (Homo sapiens, UniProt Q9ULX7); settings: read-out: KI (μM)^a^,^b / hCA XIV
T10 construct: gene CA14; recombinant, obtained in-house
T10 sequence (Q9ULX7 16-290 limits assumed): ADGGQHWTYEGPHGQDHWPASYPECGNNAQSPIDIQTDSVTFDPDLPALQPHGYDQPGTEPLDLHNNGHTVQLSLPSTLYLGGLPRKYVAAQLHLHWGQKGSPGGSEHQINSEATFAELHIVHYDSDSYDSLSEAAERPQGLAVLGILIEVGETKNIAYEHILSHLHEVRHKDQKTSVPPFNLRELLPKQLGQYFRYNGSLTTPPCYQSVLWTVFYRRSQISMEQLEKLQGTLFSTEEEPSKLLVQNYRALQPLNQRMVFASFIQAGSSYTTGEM
Description: stopped-flow CO2 hydration on hCA XIV

hCA VA = target: T11, hCA VA (Homo sapiens, UniProt P35218); settings: read-out: KI (μM)^a^,^b / hCA VA
T11 construct: gene CA5A; recombinant, obtained in-house
T11 sequence (P35218 39-305): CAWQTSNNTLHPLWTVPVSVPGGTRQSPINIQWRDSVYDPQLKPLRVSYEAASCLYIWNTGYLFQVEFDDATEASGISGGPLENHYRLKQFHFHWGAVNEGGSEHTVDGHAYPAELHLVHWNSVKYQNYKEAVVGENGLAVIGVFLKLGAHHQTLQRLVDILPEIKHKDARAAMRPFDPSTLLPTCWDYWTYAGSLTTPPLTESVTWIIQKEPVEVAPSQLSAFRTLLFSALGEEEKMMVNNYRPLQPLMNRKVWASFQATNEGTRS
Description: stopped-flow CO2 hydration on hCA VA

hCA I [2] = target: T9, hCA I; settings: CO2 1.7-17 mM, 20 mM Hepes pH 7.5, 20 mM Na2SO4, 15 min preincubation, room temperature; unreliable: table and text (69.8) disagree
Description: stopped-flow CO2 hydration on hCA I

mCA XIII = target: T12, mCA XIII (Mus musculus, UniProt Q9D6N1); settings: read-out: KI (μM)^a^,^b / mCA XIII
T12 construct: gene Ca13; recombinant, obtained in-house
T12 sequence (Q9D6N1 whole entry): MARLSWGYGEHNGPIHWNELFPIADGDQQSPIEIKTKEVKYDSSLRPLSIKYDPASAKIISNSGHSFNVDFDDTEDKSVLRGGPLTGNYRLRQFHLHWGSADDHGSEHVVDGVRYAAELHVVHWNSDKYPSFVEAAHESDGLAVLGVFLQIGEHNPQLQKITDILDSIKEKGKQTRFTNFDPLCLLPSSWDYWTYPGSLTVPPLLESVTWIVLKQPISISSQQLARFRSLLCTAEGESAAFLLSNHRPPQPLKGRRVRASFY
Description: stopped-flow CO2 hydration on mCA XIII

[3] = read-out: KI (μM)^a^,^b / hCA IX^c
[4] = read-out: KI (μM)^a^,^b / hCA XII^c
[5] = read-out: KI (μM)^a^,^b / hCA II
[6] = read-out: KI (μM)^a^,^b / hCA I
[7] = CO2 1.7-17 mM, 20 mM Hepes pH 7.5, 20 mM Na2SO4, 15 min preincubation, room temperature, read-out: KI (μM)^a^,^b / hCA I

| Ki (hCA IX; [3]) [µM] | Ki (hCA VI) [µM] | Ki (hCA III) [µM] | Ki (hCA IV) [µM] | Ki (hCA XII; [4]) [µM] | Ki (hCA VB) [µM] | Ki (hCA VII) [µM] | Ki (hCA II; [5]) [µM] | Ki (hCA I [1]; [6]) [µM] | Ki (hCA XIV) [µM] | Ki (hCA VA) [µM] | Compound | further results |
| --- | --- | --- | --- | --- | --- | --- | --- | --- | --- | --- | --- | --- |
| 64.3 | 27 | 5.72 | 39.5 | 8.32 | 10.7 | 9.56 | 8.96 | > 1000 | 1.57 | 6.7 | CONS(=O)(=O)c1ccccc1 [compound 5, N-methoxysulphonamide 5] | – |
| – | 78.1 | 44.8 | 84.7 | – | 53.6 | 70.7 | – | – | 0.94 | 67.4 | O=C(NO)c1ccccc1 [compound 9, hydroxamic acid 9] | Ki (hCA IX; CO2 1.7-17 mM, 20 mM Hepes pH 7.5, 20 mM Na2SO4, 15 min preincubation, room temperature, read-out: KI (μM)^a^,^b / hCA IX^c): 45.9 µM; Ki (hCA II; CO2 1.7-17 mM, 20 mM Hepes pH 7.5, 20 mM Na2SO4, 15 min preincubation, room temperature, read-out: KI (μM)^a^,^b / hCA II): 179 µM; Ki (hCA I [1]; [7]): 83.1 µM |
| 51.7 | 74.4 | 6.28 | 78.4 | 2.42 | 95.2 | 8.56 | 5.31 | – | 3.81 | 7.75 | NNS(=O)(=O)c1ccccc1 [compound 3, N-amino sulphonamide 3] | KI (μM)^a^,^b / hCA I (hCA I [2]): 9.8 µM; Ki (mCA XIII): 5.96 µM |
| – | – | – | – | – | – | – | – | – | – | – | NS(=O)(=O)Nc1ccccc1 [2b, sulphamide 2b] | Ki (hCA IX; read-out: hCA IX): 0.071 µM |
| – | 0.097 | 2.26 | 7.96 | – | 8.82 | – | – | – | 0.092 | 1.68 | NS(=O)(=O)c1ccccc1 [compound 2, benzenesulphonamide] | Ki (hCA IX; read-out: KI (μM)^a^,^b / hCA VI): 0.097 µM; Ki (mCA XIII): 0.1 µM |
| – | – | – | – | – | – | – | – | – | – | – | NC(=O)Oc1ccccc1 [7a, carbamate 7a] | Ki (hCA IX; read-out: hCA IX): 10.1 µM; Ki (hCA XII; read-out: hCA XII): 2.81 µM; Ki (hCA II; read-out: hCA II): 110 µM; Ki (hCA I [1]; read-out: hCA I): 720 µM |
| 3.67 | 82.6 | 35.7 | 381 | 11.2 | 83.1 | 76.8 | 93.2 | 324 | 27 | 46.8 | NC(=O)c1ccccc1 [compound 7, carboxamide 7] | – |
| 9.55 | 8.8 | 6.63 | 9.1 | 6.45 | 79.8 | 7.93 | 9.3 | 8.65 | 8.79 | 80.9 | O=S(=O)(O)c1ccccc1 [compound 1, benzenesulphonic acid] | Ki (mCA XIII): 8.72 µM |
| 60.3 | 86.2 | 4.42 | 24.6 | 1.53 | 67.9 | 8.73 | 5.47 | 2.73 | 1.66 | 5.28 | O=S(=O)(NO)c1ccccc1 [compound 4, N-hydroxysulphonamide 4] | – |
| 57.5 | 89.9 | 37.3 | 111 | 28.5 | 57.3 | 72.2 | 341 | 72.5 | 10 | 89.1 | CONC(=O)c1ccccc1 [compound 10, methylated hydroxamate 10] | – |

| Compound | Ki (hCA IX; [3]) [µM] | Ki (hCA VI) [µM] | Ki (hCA III) [µM] | Ki (hCA IV) [µM] | Ki (hCA XII; [4]) [µM] | Ki (hCA VB) [µM] | Ki (hCA VII) [µM] | Ki (hCA II; [5]) [µM] | Ki (hCA I [1]; [6]) [µM] | Ki (hCA XIV) [µM] | Ki (hCA VA) [µM] | further results |
| --- | --- | --- | --- | --- | --- | --- | --- | --- | --- | --- | --- | --- |
| NNC(=O)c1ccccc1 [compound 8, hydrazide 8] | 48.4 | 63.5 | 40.2 | 335 | 45 | 75.9 | 76.7 | 231 | 91.2 | 0.99 | 59.3 | – |
| O=C(O)c1ccccc1 [compound 6, benzoic acid] | 66.5 | 91.6 | 35.7 | 434 | 20.4 | 9.6 | 92.2 | 30.1 | – | 0.98 | 7.12 | Ki (hCA I [1]; [7]): 730 µM |
